Experimental data: patent publication US20230293517A1, “ANTAGONIST COMPOUNDS” (AdoRx Therapeutics Limited, priority 2020, published 2023)
pIC50, pKi: −log10 of the molar value. Read-outs that look alike come from different tables or passages of the source.

Key:
[1] = tested on: CD8+T cells in human whole blood; experiment: Measurement of pCREB in CD8+T cells in human whole blood; format: cell-based; conditions: 3 μM NECA, rolipram
Method: Biological Example—Measurement of pCREB in CD8+T Cells in Human Whole Blood
Heparinised human whole blood was pre-incubated at 37° C. with serial dilutions of A2a antagonists for 20 min. and the phosphodiesterase inhibitor rolipram to amplify the pCREB response. The adenosine receptor agonist NECA is then added at a final concentration of 3 μM and following a 60 min incubation the blood is fixed and red blood cells lysed. White blood cells are isolated, permeabilized and stained with directly conjugated fluorescent antibodies to phospho-CREB (Alexa Fluor 488) and CD8 (Alexa Fluor 647) and the level of phospho-CREB in CD8+T cells is measured by FACS using a BD Accuri C6 Flow Cytometer.

[2] = biological target: human Adenosine A2b receptor (Homo sapiens (Human), UniProt P29275); experiment: Adenosine receptor TR-FRET binding assay (A2b)
Outline: (§1)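 Ki values come from Cheng–Prusoff conversion of IC50s for displacement of fluorescent antagonist CA200645 from terbium-labelled human adenosine receptors in CHO membranes. Tracer was 30 nM at A2b and 100 nM at the other three subtypes; incubation lasted 2 h at room temperature.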

[3] = biological target: human Adenosine A2a receptor (Homo sapiens (Human), UniProt P29274); experiment: Adenosine receptor TR-FRET binding assay (A2a); conditions: inhibition of binding of 100 nM CA200645, CHO cell membranes
Outline: as §1

human PBMCs = experiment: CD3/CD28 stimulated IL-2 release NECA reversal assay in human PBMCs; format: cell-based; conditions: PBMC, 1 uM NECA, 24 hours, IL-2 in culture supernatant
Method: Biological Example—CD3/CD28 Stimulated IL-2 Release NECA Reversal Assay in Human PBMCs
Blood is drawn from healthy volunteers using sodium citrate as the anticoagulant (0.3% final concentration). After centrifugation of the blood over Histopaque-1077, PBMCs are collected from the Histopaque/plasma interface and washed twice in PBS (300 g for 10 mins at room temp). Cells are plated at 50,000 cells/well in 150 μl RPMI/10% FCS in 96-well cell culture plates that have been precoated with 1 ug/ml CD3 antibody. 50 μl diluted compound mix is added to the cells, to obtain final concentrations of 1 ug/ml CD28 antibody, 1 uM NECA and 0.003-10 μM adenosine receptor antagonist. Assay plates are incubated for 24 hours at 37° C. in a humidified incubator. Culture supernatant is tested for IL-2 levels using the human IL-2 Tissue Culture Kit (Meso Scale Discovery). Data for dose-response curves is calculated as % inhibition with 100% inhibition defined from no agonist control wells (+CD3/28-NECA)

[4] = biological target: human Adenosine A3 receptor (Homo sapiens (Human), UniProt P0DMS8); experiment: Adenosine receptor TR-FRET binding assay (A3); conditions: inhibition of binding of 100 nM CA200645, CHO cell membranes
Outline: as §1

[5] = biological target: human Adenosine A1 receptor (Homo sapiens (Human), UniProt P30542); experiment: Adenosine receptor TR-FRET binding assay (A1); conditions: inhibition of binding of 100 nM CA200645, CHO cell membranes
Outline: as §1

[6] = TR-FRET, inhibition of binding of 30 nM CA200645, CHO cell membranes

Sequence of human Adenosine A2a receptor (P29274 whole entry): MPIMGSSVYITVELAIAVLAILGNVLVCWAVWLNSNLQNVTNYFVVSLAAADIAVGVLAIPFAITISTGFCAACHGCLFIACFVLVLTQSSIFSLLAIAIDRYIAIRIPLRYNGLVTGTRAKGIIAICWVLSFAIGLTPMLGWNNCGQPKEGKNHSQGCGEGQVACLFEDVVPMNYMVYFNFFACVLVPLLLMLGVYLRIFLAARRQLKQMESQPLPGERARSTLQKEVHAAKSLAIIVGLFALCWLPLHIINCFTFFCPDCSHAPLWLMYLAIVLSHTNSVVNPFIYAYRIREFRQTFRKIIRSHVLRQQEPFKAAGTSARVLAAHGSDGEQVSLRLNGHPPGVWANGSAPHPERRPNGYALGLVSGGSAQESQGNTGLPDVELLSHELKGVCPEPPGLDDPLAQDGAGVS
Sequence of human Adenosine A3 receptor (P0DMS8 whole entry): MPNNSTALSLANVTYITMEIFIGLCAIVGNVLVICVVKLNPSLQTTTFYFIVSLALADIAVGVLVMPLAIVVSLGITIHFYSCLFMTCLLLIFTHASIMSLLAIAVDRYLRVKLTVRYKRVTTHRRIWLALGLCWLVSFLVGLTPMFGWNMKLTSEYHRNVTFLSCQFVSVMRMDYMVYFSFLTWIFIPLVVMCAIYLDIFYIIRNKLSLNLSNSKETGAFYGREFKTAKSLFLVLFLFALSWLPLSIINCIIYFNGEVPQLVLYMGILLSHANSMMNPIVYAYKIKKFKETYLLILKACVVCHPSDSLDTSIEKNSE
Sequence of human Adenosine A1 receptor (P30542 whole entry): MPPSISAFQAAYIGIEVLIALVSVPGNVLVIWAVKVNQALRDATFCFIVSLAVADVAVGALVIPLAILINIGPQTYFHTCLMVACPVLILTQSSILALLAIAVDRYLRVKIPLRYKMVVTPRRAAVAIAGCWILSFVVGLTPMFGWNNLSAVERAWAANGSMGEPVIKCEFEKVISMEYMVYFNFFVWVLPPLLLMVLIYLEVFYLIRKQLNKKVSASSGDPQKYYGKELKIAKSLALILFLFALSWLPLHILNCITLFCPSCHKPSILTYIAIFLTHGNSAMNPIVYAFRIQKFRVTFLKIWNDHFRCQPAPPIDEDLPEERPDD
Sequence of human Adenosine A2b receptor (P29275 whole entry): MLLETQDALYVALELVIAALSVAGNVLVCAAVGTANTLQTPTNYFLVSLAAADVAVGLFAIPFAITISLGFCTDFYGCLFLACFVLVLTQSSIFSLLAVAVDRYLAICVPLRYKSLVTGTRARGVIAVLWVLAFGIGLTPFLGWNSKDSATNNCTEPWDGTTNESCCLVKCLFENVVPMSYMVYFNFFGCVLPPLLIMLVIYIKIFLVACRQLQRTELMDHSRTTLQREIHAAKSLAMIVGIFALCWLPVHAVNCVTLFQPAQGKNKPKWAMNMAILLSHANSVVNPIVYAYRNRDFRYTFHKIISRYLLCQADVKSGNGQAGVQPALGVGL

pIC50 [1] | pKi [2, 6] | pKi [3] | pKi [4] | pKi [5] | pKi [2] | SMILES | pIC50 (human PBMCs)
6.26 | 8.77 | 8.82 | 6.71 | 7.30 |  | Cc1cc(-c2sc(NC(=O)N3CCNC(=O)C3)nc2-c2cccc(C#N)c2)cc(C)n1 [Example 4.13, N-[4-(3-Cyanophenyl)-5-(2,6-dimethyl-4-pyridyl)thiazol-2-yl]-3-oxo-piperazine-1-carboxamide] | 7.85
6.19 | 8.85 | 8.64 | 6.47 | 7.04 |  | Cc1cc(-c2sc(NC(=O)N3CCN(C)C(=O)C3)nc2-c2cccc(C#N)c2)cc(C)n1 [Example 4.15, N-[4-(3-Cyanophenyl)-5-(2,6-dimethyl-4-pyridyl)thiazol-2-yl]-4-methyl-3-oxo-piperazine-1-carboxamide] | 7.99
6.43 | 8.55 | 8.72 | 6.53 | 7.11 |  | CC(=O)N1CCN(C(=O)Nc2nc(-c3cccc(C#N)c3)c(-c3cc(C)nc(C)c3)s2)CC1 [Example 4.17, 4-Acetyl-N-[4-(3-cyanophenyl)-5-(2,6-dimethyl-4-pyridyl)thiazol-2-yl]piperazine-1-carboxamide] | 8.07
6.46 | 8.64 | 9.22 | 6.38 | 7.03 |  | Cc1cc(-c2sc(NC(=O)N3CCN(S(C)(=O)=O)CC3)nc2-c2cccc(C#N)c2)cc(C)n1 [Example 4.18, N-[4-(3-cyanophenyl)-5-(2,6-dimethyl-4-pyridyl)thiazol-2-yl]-4-methylsulfonyl-piperazine-1-carboxamide] | 8.21
5.26 |  | 9.22 | 6.63 | 7.34 | 8.89 | Cc1cc(-c2sc(NC(=O)N3CCN(S(N)(=O)=O)CC3)nc2-c2cccc(C#N)c2)cc(C)n1 [Example 4.19, N-[4-(3-cyanophenyl)-5-(2,6-dimethyl-4-pyridyl)thiazol-2-yl]-4-sulfamoyl-piperazine-1-carboxamide] | 8.27
6.89 | 8.59 | 8.82 | 6.01 | 6.79 |  | Cc1cc(-c2sc(NC(=O)N3CCC4(CC3)NC(=O)NC4=O)nc2-c2cccc(C#N)c2)cc(C)n1 [Example 4.20, N-[4-(3-Cyanophenyl)-5-(2,6-dimethyl-4-pyridyl)thiazol-2-yl]-2,4-dioxo-1,3,8-triazaspiro[4.5]decane-8-carboxamide] | 8.89
7.30 | 8.74 | 9.92 | 6.92 | 7.85 |  | Cc1cc(-c2sc(NC(=O)N3CC(CO)C3)nc2-c2cccc(C#N)c2)cc(C)n1 [Example 4.25, N-[4-(3-Cyanophenyl)-5-(2,6-dimethyl-4-pyridyl)thiazol-2-yl]-3-(hydroxymethyl)azetidine-1-carboxamide] | 8.96
7.70 | 9.40 | 10.30 | 6.89 | 8.40 |  | Cc1cc(-c2sc(NC(=O)N3CC(C#N)C3)nc2-c2cccc(C#N)c2)cc(C)n1 [Example 4.26, 3-Cyano-N-[4-(3-cyanophenyl)-5-(2,6-dimethyl-4-pyridyl)thiazol-2-yl]azetidine-1-carboxamide] | 9.40
7.30 | 8.89 | 9.89 | 6.95 | 7.62 |  | Cc1cc(-c2sc(NC(=O)N3CCC(C(N)=O)CC3)nc2-c2cccc(C#N)c2)cc(C)n1 [Example 4.29, N1-[4-(3-Cyanophenyl)-5-(2,6-dimethyl-4-pyridyl)thiazol-2-yl]piperidine-1,4-dicarboxamide] | 8.68
7.22 | 9.22 | 9.39 | 6.97 | 8.15 |  | Cc1cc(-c2sc(NC(=O)N3CC(O)C3)nc2-c2cccc(C#N)c2)cc(C)n1 [Example 4.30, N-[4-(3-Cyanophenyl)-5-(2,6-dimethyl-4-pyridyl)thiazol-2-yl]-3-hydroxy-azetidine-1-carboxamide] | 8.89
5.93 | 9.05 | 9.08 | 7.15 | 7.40 |  | Cc1cc(-c2sc(NC(=O)N3CCN[C@H](CO)C3)nc2-c2cccc(C#N)c2)cc(Cl)n1 [Example 5.2, (3S)-N-[5-(2-Chloro-6-methyl-4-pyridyl)-4-(3-cyanophenyl)thiazol-2-yl]-3-(hydroxymethyl)piperazine-1-carboxamide] | 7.69
5.71 |  | 8.99 | 7.48 | 6.95 | 8.24 | Cc1cc(-c2sc(NC(=O)N3CCN[C@@H](C)C3)nc2-c2cccc(C#N)c2)cc(Cl)n1 [Example 5.4, (3S)-N-[5-(2-Chloro-6-methyl-4-pyridyl)-4-(3-cyanophenyl)thiazol-2-yl]-3-methyl-piperazine-1-carboxamide] | 7.14
5.57 | 8.62 | 9.03 | 7.15 | 6.94 |  | Cc1cc(-c2sc(NC(=O)N3CCN[C@H](C)C3)nc2-c2cccc(C#N)c2)cc(Cl)n1 [Example 5.5, (3R)-N-[5-(2-Chloro-6-methyl-4-pyridyl)-4-(3-cyanophenyl)thiazol-2-yl]-3-methyl-piperazine-1-carboxamide] | 7.51
6.14 | 8.38 | 8.67 | 7.51 | 7.66 |  | Cc1cc(-c2sc(NC(=O)N3C[C@@H]4C[C@H]3CN4)nc2-c2cccc(C#N)c2)cc(Cl)n1 [Example 5.6, (1S,4S)-N-[5-(2-Chloro-6-methyl-4-pyridyl)-4-(3-cyanophenyl)thiazol-2-yl]-2,5-diazabicyclo[2.2.1]heptane-2-carboxamide] | 7.52
6.01 | 8.74 | 9.17 | 6.32 | 7.47 |  | Cc1cc(-c2sc(NC(=O)N3CCN[C@H](C(N)=O)C3)nc2-c2cccc(C#N)c2)cc(Cl)n1 [Example 5.8, (3S)-N1-[5-(2-Chloro-6-methyl-4-pyridyl)-4-(3-cyanophenyl)thiazol-2-yl]piperazine-1,3-dicarboxamide] | 7.74
6.00 | 8.37 | 8.63 | 6.90 | 7.09 |  | Cc1cc(-c2sc(NC(=O)N3CCC(C)(N)CC3)nc2-c2cccc(C#N)c2)cc(Cl)n1 [Example 5.9, 4-Amino-N-[5-(2-chloro-6-methyl-4-pyridyl)-4-(3-cyanophenyl)thiazol-2-yl]-4-methyl-piperidine-1-carboxamide] | 7.74
6.72 | 8.51 | 9.17 | 6.44 | 6.99 |  | Cc1cc(-c2sc(NC(=O)N3CCC4(CC3)CNC(=O)C4)nc2-c2cccc(C#N)c2)cc(C)n1 [Example 6.4, N-[4-(3-Cyanophenyl)-5-(2,6-dimethyl-4-pyridyl)thiazol-2-yl]-3-oxo-2,8-diazaspiro[4.5]decane-8-carboxamide] | 8.85
7.40 | 8.92 | 9.52 | 6.50 | 7.85 |  | Cc1cc(-c2sc(NC(=O)N3CCC4(CC3)COC4)nc2-c2cccc(C#N)c2)cc(C)n1 [Example 6.10, N-[4-(3-Cyanophenyl)-5-(2,6-dimethyl-4-pyridyl)thiazol-2-yl]-2-oxa-7-azaspiro[3.5]nonane-7-carboxamide] | 8.54
7.30 | 8.59 | 9.41 | 6.50 | 7.38 |  | Cc1cc(-c2sc(NC(=O)N3CCC4(CC3)CNC(=O)N4)nc2-c2cccc(C#N)c2)cc(C)n1 [Example 6.11, N-[4-(3-Cyanophenyl)-5-(2,6-dimethyl-4-pyridyl)thiazol-2-yl]-2-oxo-1,3,8-triazaspiro[4.5]decane-8-carboxamide] | 8.28
